Measured values reported in ChEMBL document CHEMBL4602732, “Optimizing Pyrazolopyrimidine Inhibitors of Calcium Dependent Protein Kinase 1 for Treatment of Acute and Chronic Toxoplasmosis” (J Med Chem, 2020).

Assays:
[1] = tested on: Src (human) versus Toxoplasma gondii CDPK1; experiment: Selectivity ratio of IC50 for inhibition of human Src expressed in Escherichia coli BL21 to IC50 for inhibition of Toxoplasma gondii full-length wild-type C-terminal His-tagged CDPK1 expressed in Escherichia coli BL21(DE3)V2RpAcYc-LIC+LamP; format: toxicity; settings: read-out: Ratio IC50
[2] = biological target: Proto-oncogene tyrosine-protein kinase Src (Homo sapiens, UniProt P12931); experiment: Inhibition of human Src expressed in Escherichia coli BL21 using Abltide peptide as substrate incubated for 20 to 40 mins by ELISA
Sequence of Proto-oncogene tyrosine-protein kinase Src (P12931 2-536 limits assumed): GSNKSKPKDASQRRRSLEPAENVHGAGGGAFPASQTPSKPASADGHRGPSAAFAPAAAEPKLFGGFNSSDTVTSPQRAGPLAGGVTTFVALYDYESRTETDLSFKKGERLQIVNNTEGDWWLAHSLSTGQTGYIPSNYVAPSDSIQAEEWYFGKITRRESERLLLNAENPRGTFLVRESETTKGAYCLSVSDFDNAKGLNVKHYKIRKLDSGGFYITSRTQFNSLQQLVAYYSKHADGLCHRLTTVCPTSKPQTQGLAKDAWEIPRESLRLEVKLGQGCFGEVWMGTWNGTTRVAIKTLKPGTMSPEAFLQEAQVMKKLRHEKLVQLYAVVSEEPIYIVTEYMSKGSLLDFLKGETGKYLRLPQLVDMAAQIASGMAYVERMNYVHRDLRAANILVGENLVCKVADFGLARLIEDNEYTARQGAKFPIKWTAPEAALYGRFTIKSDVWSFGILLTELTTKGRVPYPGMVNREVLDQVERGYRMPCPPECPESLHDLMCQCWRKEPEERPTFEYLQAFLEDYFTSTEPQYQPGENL

[3] = Inhibition of Toxoplasma gondii full-length C-terminal His-tagged CDPK1 G128M mutant expressed in Escherichia coli BL21(DE3)V2RpAcYc-LIC+LamP using syntide-2 peptide as substrate incubated for 20 to 40 mins by ELISA
[4] = Cytotoxicity against MDCK cells assessed as cell growth at 20 uM measured after 72 hrs by cellTiter 96 AQueous non-radioactive cell proliferation assay relative to control; format: cell-based, Canis lupus familiaris; settings: dog, read-out: Activity
[5] = tested on: Toxoplasma gondii; experiment: Antiparasitic activity against Toxoplasma gondii type III CTG tachyzoites infected in HFF assessed as reduction in parasite growth; format: functional, organism-based
[6] = Cytotoxicity against HFF monolayers assessed as cell growth measured after 72 hrs by luciferase reporter gene assay relative to control; format: cell-based; settings: human, read-out: Activity
[7] = tested on: Toxoplasma gondii; experiment: Antiparasitic activity against type 2 Toxoplasma gondii ME49 tachyzoites infected in HFF assessed as reduction in parasite growth; format: functional, organism-based
[8] = Protein binding in mouse brain assessed as unbound fraction; format: ADME, tissue-based
[9] = Protein binding in mouse plasma assessed as unbound fraction at 2 uM measured after 4 hrs by LC-MS/MS analysis; format: ADME, cell-free
[10] = Inhibition of Toxoplasma gondii full-length wild-type C-terminal His-tagged CDPK1 expressed in Escherichia coli BL21(DE3)V2RpAcYc-LIC+LamP using syntide-2 peptide as substrate incubated for 20 to 40 mins by ELISA
[11] = tested on: Toxoplasma gondii; experiment: Antiparasitic activity against 2F clone of type 1 Toxoplasma gondii RH tachyzoites expressing beta-galactosidase infected in HFF assessed as reduction in parasite growth measured after 72 hrs by chlorophenol Red-beta-D-galactopyranoside substrate based assay; format: functional, organism-based
[12] = Half life in mouse liver microsomes at 10 uM preincubated for 10 mins followed by NADPH addition by LC-MS/MS analysis; format: ADME, Microsome; settings: microsomes, 10 µM
[13] = Half life in human liver microsomes at 10 uM preincubated for 10 mins followed by NADPH addition by LC-MS/MS analysis; format: ADME, Microsome; settings: liver microsomes
[14] = tested on: MDR1; experiment: Efflux ratio of apparent permeability across basolateral to apical side over apical to basolateral side in MDCK2-MDR1 cells at 2 uM measured after 150 mins by LC-MS/MS analysis; format: ADME, cell-based, Canis lupus familiaris; settings: dog, MDCK-MDR1
[15] = Apparent permeability across apical to basolateral side in MDCK2-MDR1 cells at 2 uM measured after 150 mins by LC-MS/MS analysis; format: ADME, cell-based, Canis lupus familiaris; settings: dog, mdck-mdr1, […]
[16] = biological target: T1, Aldehyde oxidase (Homo sapiens, UniProt Q06278); experiment: Drug metabolism in human liver S9 fraction assessed as aldehyde oxidase-mediated drug metabolism by measuring rate of parent compound decay at 1 uM measured after 90 mins by LC-MS/MS analysis; format: ADME, subcellular
T1 sequence (Q06278 whole entry): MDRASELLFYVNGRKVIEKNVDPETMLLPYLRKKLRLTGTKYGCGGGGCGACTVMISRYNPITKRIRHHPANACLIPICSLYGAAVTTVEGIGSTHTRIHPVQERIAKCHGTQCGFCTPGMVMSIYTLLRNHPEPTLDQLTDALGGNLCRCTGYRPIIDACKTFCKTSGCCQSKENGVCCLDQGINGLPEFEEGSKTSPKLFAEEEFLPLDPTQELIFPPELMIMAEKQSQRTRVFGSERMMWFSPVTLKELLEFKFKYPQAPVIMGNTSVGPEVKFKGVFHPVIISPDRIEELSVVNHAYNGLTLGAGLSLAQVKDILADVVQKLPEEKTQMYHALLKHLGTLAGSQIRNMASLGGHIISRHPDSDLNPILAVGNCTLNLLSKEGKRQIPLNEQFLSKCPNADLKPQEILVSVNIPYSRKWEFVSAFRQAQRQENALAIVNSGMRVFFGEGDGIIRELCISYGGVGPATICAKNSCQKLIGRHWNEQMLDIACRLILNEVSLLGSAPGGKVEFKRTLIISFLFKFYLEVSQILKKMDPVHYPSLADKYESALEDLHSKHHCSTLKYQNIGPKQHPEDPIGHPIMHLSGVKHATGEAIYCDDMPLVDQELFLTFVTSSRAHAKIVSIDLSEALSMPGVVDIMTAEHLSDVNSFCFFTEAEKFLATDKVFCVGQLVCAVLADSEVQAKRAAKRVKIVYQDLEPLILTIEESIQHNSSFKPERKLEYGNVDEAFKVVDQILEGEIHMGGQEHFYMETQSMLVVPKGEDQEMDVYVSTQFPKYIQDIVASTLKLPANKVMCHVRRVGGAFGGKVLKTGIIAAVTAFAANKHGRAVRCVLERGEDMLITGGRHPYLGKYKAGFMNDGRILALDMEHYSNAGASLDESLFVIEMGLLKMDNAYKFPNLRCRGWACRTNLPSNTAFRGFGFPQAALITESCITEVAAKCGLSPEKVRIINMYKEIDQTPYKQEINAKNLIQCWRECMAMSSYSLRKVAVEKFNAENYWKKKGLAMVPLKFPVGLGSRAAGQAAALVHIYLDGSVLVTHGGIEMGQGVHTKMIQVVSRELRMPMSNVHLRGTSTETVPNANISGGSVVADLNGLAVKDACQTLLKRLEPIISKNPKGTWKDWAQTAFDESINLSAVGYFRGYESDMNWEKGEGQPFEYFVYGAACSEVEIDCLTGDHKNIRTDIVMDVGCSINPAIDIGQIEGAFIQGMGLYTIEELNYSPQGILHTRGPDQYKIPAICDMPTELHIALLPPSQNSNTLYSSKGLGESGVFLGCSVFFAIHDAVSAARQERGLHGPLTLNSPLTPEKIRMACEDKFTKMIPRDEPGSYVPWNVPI

[17] = Clearance in human hepatocytes assessed per million cells at 1 uM by LC-MS/MS analysis; format: ADME, cell-based, Hepatocyte
[18] = Intrinsic clearance in human liver microsomes at 10 uM preincubated for 10 mins followed by NADPH addition by LC-MS/MS analysis; format: ADME, Microsome; settings: read-out: CLH
[19] = Kinetic solubility of the compound in pH 7.4 phosphate buffer measured after 24 hrs by UV-HPLC analysis; format: physicochemical; settings: pH 7.4, 24 h
[20] = Cytotoxicity against human HepG2 cells assessed as cell growth at 20 uM measured after 72 hrs by cellTiter 96 AQueous non-radioactive cell proliferation assay relative to control; format: cell-based; settings: read-out: Activity
[21] = Cytotoxicity against human CMEC/D3 cells assessed as cell growth at 20 uM measured after 72 hrs by cellTiter 96 AQueous non-radioactive cell proliferation assay relative to control; format: cell-based, hCMEC/D3; settings: read-out: Activity
[22] = Cytotoxicity against human Caco2 cells assessed as cell growth at 20 uM measured after 72 hrs by cellTiter 96 AQueous non-radioactive cell proliferation assay relative to control; format: cell-based, Caco-2; settings: read-out: Activity
[23] = Cytotoxicity against human SH-SY5Y cells assessed as cell growth at 20 uM measured after 72 hrs by cellTiter 96 AQueous non-radioactive cell proliferation assay relative to control; format: cell-based; settings: read-out: Activity
[24] = biological target: LCK (Homo sapiens, UniProt P06239); experiment: Inhibition of wild-type human partial length LCK (R207 to P509 residues) expressed in bacterial expression system at 10 uM by Kinomescan method relative to control
Sequence of LCK (P06239 whole entry, the tested form may be a part): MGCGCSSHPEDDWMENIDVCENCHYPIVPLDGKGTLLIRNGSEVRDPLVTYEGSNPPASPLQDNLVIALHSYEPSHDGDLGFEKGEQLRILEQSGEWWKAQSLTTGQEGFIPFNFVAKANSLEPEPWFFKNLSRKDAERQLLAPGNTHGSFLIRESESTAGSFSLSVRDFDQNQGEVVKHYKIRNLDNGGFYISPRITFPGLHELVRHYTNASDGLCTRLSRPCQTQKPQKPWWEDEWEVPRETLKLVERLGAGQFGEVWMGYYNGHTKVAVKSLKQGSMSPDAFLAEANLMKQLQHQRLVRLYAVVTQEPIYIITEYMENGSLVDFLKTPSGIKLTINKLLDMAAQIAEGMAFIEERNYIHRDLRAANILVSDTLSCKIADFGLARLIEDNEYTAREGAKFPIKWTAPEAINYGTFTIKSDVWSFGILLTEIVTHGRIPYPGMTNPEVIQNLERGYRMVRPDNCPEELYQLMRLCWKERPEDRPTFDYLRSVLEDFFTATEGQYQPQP

[25] = biological target: Voltage-gated inwardly rectifying potassium channel KCNH2 (Homo sapiens, UniProt Q12809); experiment: Inhibition of human ERG expressed in CHOK1 cells by patch-clamp electrophysiology assay; format: cell-based, CHO-K1
Sequence of Voltage-gated inwardly rectifying potassium channel KCNH2 (Q12809 whole entry): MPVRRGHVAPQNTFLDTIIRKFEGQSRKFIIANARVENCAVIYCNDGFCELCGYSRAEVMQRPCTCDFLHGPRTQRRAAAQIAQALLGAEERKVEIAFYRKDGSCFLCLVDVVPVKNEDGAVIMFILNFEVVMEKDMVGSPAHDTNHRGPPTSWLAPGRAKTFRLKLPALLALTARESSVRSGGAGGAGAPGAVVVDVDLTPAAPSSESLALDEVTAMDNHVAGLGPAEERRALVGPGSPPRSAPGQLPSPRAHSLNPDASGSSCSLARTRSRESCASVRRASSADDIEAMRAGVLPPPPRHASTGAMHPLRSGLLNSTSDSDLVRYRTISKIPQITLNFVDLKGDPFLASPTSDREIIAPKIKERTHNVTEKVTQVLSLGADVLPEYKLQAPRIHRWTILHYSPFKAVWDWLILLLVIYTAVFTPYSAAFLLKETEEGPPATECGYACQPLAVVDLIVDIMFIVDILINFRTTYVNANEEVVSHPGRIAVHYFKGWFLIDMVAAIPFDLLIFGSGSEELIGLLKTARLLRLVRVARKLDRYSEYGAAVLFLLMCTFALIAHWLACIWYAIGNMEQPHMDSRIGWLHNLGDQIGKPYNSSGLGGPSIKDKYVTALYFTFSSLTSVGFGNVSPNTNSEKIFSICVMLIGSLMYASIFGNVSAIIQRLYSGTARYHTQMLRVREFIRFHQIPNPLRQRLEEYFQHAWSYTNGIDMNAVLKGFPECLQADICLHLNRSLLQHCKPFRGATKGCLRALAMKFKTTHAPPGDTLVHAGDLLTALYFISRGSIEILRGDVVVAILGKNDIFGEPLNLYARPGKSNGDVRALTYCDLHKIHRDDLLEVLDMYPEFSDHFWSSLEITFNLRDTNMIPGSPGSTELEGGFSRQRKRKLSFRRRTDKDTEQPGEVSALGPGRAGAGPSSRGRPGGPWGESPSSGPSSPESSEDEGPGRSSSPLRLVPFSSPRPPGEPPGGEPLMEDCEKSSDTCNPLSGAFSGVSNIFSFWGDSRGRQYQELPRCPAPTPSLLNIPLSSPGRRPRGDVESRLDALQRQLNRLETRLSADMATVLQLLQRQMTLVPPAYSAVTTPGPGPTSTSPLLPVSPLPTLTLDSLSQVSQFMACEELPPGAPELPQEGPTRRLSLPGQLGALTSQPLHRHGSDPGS

[26] = Ratio of drug level in central nervous system to plasma in CD1 mouse at 10 mg/kg, po administered via gavage measured after 8 hrs by LC-MS/MS analysis; format: ADME, organism-based, CNS/Plasma; settings: central nervous system and plasma
[27] = Half life in CD1 mouse at 3 mg/kg, iv or 10 mg/kg, po administered via gavage by LC-MS/MS analysis; format: ADME, organism-based; settings: in vivo
[28] = Cmax in CD1 mouse at 3 mg/kg, iv or 10 mg/kg, po administered via gavage by LC-MS/MS analysis; format: ADME, organism-based; settings: in vivo
[29] = AUC in CD1 mouse at 3 mg/kg, iv or 10 mg/kg, po administered via gavage by LC-MS/MS analysis; format: ADME, organism-based; settings: in vivo
[30] = Oral bioavailability in CD1 mouse at 10 mg/kg administered via gavage by LC-MS/MS analysis; format: ADME, organism-based; settings: in vivo

Q: Which selectivity ratio [1] does the source give for `Nc1ncnc2c1c(Oc1cc(C(F)(F)F)ccn1)nn2[C@@H]1CCCC[C@H]1O` here?
A: Its selectivity ratio is > 1000.

Q: And the IC50 [2]?
A: Its IC50 is > 20000 nM.

Q: And the IC50 [3]?
A: The IC50 was > 20000 nM.

Q: And the viability at 72 h, 20 µM [4]?
A: The viability at 72 h, 20 µM was 77.3%.

Q: And the EC50 [5]?
A: The EC50 was 227 nM.

Q: What about the viability at 72 h [6] of the same compound?
A: Its viability at 72 h is 107%.

Q: What about the EC50 [7] of the same compound?
A: Its EC50 is 89.6 nM.

Q: What about the fraction unbound [8] of the same compound?
A: The fraction unbound was 0.041.

Q: What about the Fu [9] of the same compound?
A: The Fu was 24.3%.

Q: What about the IC50 [10] of the same compound?
A: The IC50 was 6.6 nM.

Q: And the EC50 [11]?
A: Its EC50 is 77 to 77.5 nM.

Q: What about the t1/2 [12] of the same compound?
A: Its t1/2 is 1.1 h.

Q: What about the half-life at 10 µM [13] of the same compound?
A: Its half-life at 10 µM is > 2.42 h.

Q: And the efflux ratio at […], 2 µM [14]?
A: The efflux ratio at […], 2 µM was 1.23.

Q: What about the Papp [15] of the same compound?
A: Its Papp is 21.43 ×10⁻⁶ cm/s.

Q: And the Drug metabolism [16]?
A: Its Drug metabolism is < 3.2 µL/min/mg.

Q: And the CLH [17]?
A: Its CLH is < 6.4 µL/min/1e6 cells.

Q: What about the CLint scaled at 10 µM [18] of the same compound?
A: The CLint scaled at 10 µM was < 8.6 mL/min/kg.

Q: And the Kinetic_solubility [19]?
A: Its Kinetic_solubility is 92.73 µM.

Q: What about the viability at 72 h, 20 µM [20] of the same compound?
A: Its viability at 72 h, 20 µM is 99%.

Q: And the viability at 72 h, 20 µM [21]?
A: The viability at 72 h, 20 µM was 126%.

Q: What about the viability at 72 h, 20 µM [22] of the same compound?
A: The viability at 72 h, 20 µM was 100%.

Q: What about the viability at 72 h, 20 µM [23] of the same compound?
A: The viability at 72 h, 20 µM was 105%.

Q: And the inhibition at 10 µM [24]?
A: The inhibition at 10 µM was 45%.

Q: And the IC50 [25]?
A: Its IC50 is > 30000 nM.

Q: What about the Kp at 8 h [26] of the same compound?
A: Its Kp at 8 h is 0.47.

Q: And the t1/2 [27]?
A: Its t1/2 is 2.17 h.

Q: And the Cmax [28]?
A: Its Cmax is 620 ng/mL.

Q: And the AUC [29]?
A: Its AUC is 1100 ng·h/mL.

Q: What about the bioavailability [30] of the same compound?
A: Its bioavailability is 48.9%.
